Data set [1] addresses T1, Amine oxidase [flavin-containing] A (Homo sapiens, UniProt P21397).
T1 sequence (P21397 whole entry): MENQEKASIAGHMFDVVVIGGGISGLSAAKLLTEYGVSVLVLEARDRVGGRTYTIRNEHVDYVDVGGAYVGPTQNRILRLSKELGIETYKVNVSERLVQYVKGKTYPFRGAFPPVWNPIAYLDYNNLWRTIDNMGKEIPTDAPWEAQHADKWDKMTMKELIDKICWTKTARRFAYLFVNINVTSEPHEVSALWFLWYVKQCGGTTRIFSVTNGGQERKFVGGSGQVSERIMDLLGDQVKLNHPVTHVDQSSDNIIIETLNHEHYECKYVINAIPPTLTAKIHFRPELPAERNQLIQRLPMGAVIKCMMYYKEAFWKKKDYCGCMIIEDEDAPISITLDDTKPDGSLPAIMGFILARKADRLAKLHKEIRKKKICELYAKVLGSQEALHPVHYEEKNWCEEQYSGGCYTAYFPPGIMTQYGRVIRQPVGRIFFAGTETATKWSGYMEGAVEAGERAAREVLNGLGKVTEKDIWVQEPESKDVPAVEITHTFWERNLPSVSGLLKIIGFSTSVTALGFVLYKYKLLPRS
Description: Inhibition of recombinant MAO-A (unknown origin) by Spectrometric analysis.

Data set [2] concerns the target T2, Amine oxidase [flavin-containing] B (Homo sapiens, UniProt P27338).
T2 sequence (P27338 whole entry): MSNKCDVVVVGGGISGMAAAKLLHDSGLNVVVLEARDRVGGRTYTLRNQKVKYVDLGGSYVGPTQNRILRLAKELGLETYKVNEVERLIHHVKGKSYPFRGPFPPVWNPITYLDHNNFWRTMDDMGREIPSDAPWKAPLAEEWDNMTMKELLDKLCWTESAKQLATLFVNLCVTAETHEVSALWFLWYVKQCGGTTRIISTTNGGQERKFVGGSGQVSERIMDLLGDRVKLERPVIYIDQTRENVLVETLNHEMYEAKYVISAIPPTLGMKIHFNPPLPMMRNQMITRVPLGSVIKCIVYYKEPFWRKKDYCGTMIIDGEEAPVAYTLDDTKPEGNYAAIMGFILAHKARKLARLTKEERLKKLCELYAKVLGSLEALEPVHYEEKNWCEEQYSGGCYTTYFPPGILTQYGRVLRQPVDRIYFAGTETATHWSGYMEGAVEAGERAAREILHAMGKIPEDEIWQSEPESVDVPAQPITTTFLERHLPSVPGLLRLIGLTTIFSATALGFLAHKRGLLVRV
Put plainly: Inhibition of recombinant MAO-B (unknown origin) by Spectrometric analysis.

The target in data set [3] is T3, Lysine-specific histone demethylase 1A (Homo sapiens, UniProt O60341). Description: Inhibition of human LSD1 (172 to 833 residues) expressed in Escherichia coli Rosetta 2 strain using H3K4me1 (1 to 21 residues) as substrate by Amplex Red reagent based fluorescence assay.
The target of data set [4] is T3, Lysine-specific histone demethylase 1A. Put plainly: Inhibition of LSD1 (unknown origin) using H3K4me2 peptide as substrate at 1 uM incubated for 30 mins by Amplex Red reagent based fluorescence analysis.
For data set [5], the target named is T4, MAO-A (Homo sapiens, UniProt P21397).
T4 sequence (P21397 whole entry): T1 sequence (P21397 whole entry)
Description: Inhibition of recombinant MAO-A (unknown origin) at 1 uM incubated for 15 mins followed by luciferin substrate addition and measured after 60 mins by Promega-Glo analysis. To be noted: probe luciferin substrate, time 75 min.

The target in data set [6] is T5, MAO-B (Homo sapiens, UniProt P27338).
T5 sequence (P27338 whole entry): T2 sequence (P27338 whole entry)
Description: Inhibition of recombinant MAO-B (unknown origin) at 1 uM incubated for 15 mins followed by luciferin substrate addition and measured after 60 mins by Promega-Glo analysis. As to conditions: probe luciferin substrate, time 75 min.

A further data set relates to Raji. Put plainly: Antiproliferative activity against human Raji cells assessed as reduction in cell viability incubated for 6 days by MTS assay. The data set is classed as functional, cell-based. To be noted: 144 h. In general terms: Tetrazolium dyes change colour on reduction, which living cells bring about.
A further data set relates to OCI-AML-3. Description: Antiproliferative activity against human OCI-AML-3 cells assessed as reduction in cell viability incubated for 6 days by MTS assay. The class given is functional, cell-based. As to conditions: OCI-AML-3, 144 h.
A further data set deals with K562. Description: Antiproliferative activity against human K562 cells assessed as reduction in cell viability incubated for 6 days by MTS assay. The class given is functional, cell-based. As to conditions: K562, 144 h.
For another data set, the system named is THP-1. Put plainly: Antiproliferative activity against human THP-1 cells assessed as reduction in cell viability incubated for 6 days by MTS assay. As to conditions: THP-1, 144 h. The class given is functional, cell-based.
The next data set relates to U-937. Put plainly: Antiproliferative activity against human U-937 cells assessed as reduction in cell viability incubated for 6 days by MTS assay. The class given is functional, cell-based. To be noted: U-937, 144 h.
For data set [7], the target named is T3, Lysine-specific histone demethylase 1A. Description: Inhibition of LSD1 (unknown origin) using methylated histone H3K4 peptide as substrate by fluorescence analysis.
For data set [8] the target is unchanged. Put plainly: Inhibition of LSD1 (unknown origin) expressed in Escherichia coli BL21 (DE) using H3K4me2 peptide as substrate incubated for 30 mins by Amplex Red reagent based fluorescence analysis.
Data set [9] concerns the target T4, MAO-A. Put plainly: Inhibition of recombinant MAO-A (unknown origin) at 1 uM by MAO-GloTM assay.
Data set [10] concerns the target T5, MAO-B. Description: Inhibition of recombinant MAO-B (unknown origin) at 1 uM by MAO-GloTM assay.
The target in data set [11] is T3, Lysine-specific histone demethylase 1A. Put plainly: Inhibition of recombinant LSD1 (unknown origin).
Data set [12] shares this target. Description: Inhibition of LSD1 (unknown origin) by fluorescence based microplate reader analysis.
The test system of a further data set is MDA-MB-231. Put plainly: Antiproliferative activity against human MDA-MB-231 cells assessed as reduction in cell viability incubated for 48 hrs by MTT assay. The class given is functional, cell-based. As to conditions: MDA-MB-231, 48 h.
The target of data set [13] is T3, Lysine-specific histone demethylase 1A. Put plainly: Inhibition of LSD1 (unknown origin) by fluorescence analysis.
Data set [14] has the same target. Description: Inhibition of human GST-tagged LSD1 demethylase activity using H3K4 peptide as substrate by MALDI-TOF analysis.
Data set [15] shares this target. Put plainly: Inhibition of LSD1 (unknown origin).
Another data set has as its system MGC-803. Put plainly: Antiproliferative activity against human MGC-803 cells assessed as reduction in cell viability incubated for 72 hrs by MTT assay. The class given is functional, cell-based.
The nature of data set [16]: Cytotoxicity against human GES1 cells assessed as reduction in cell viability incubated for 72 hrs by MTT assay. The data set is classed as toxicity, cell-based.
The target in data set [17] is T1, Amine oxidase [flavin-containing] A. Description: Inhibition of recombinant MAO-A (unknown origin) by MAO-Glo assay.
Data set [18] has as its target T2, Amine oxidase [flavin-containing] B. Put plainly: Inhibition of recombinant MAO-B (unknown origin) by MAO-Glo assay.

Structures are written as SMILES.

A word on the IC50: it is the concentration that inhibits the measured activity by half. In the case of `O=C(NCCc1ccc([N+](=O)[O-])cc1)c1cccc(NS(=O)(=O)c2ccccc2)c1`, the IC50 was 63.9 µM in data set [1] and 298 µM in data set [2].

Consider `COCc1cccc(NC(=O)c2cc3ccccc3n2C)c1COc1ccc(OC2CCNCC2)cc1`, for which the results for the IC50 in [1] and in data set [2] were 71 µM and 138 µM, respectively.

By Ki is commonly meant a dissociation constant, usually derived from enzyme kinetics or from competition with a known ligand. For `CSCC[C@@H]1NC(=O)[C@@H](NC(=O)[C@H](CCCNC(=N)N)NC(=O)[C@H](C)N)CCCCNC(=O)CC[C@@H](C(=O)N[C@@H](CCC(=O)O)C(=O)N[C@@H](C)C(=O)N[C@@H](CCCNC(=N)N)C(=O)N[C@@H](CCCCN)C(=O)N[C@@H](CO)C(=O)N[C@H](C(=O)O)[C@@H](C)O)NC1=O`, in [3], the Ki came out at 2.3 µM.

Usually inhibition stands for the share of the control response that was lost under treatment. With `C#CCSc1nc(Sc2nnnn2-c2ccccc2)c2nnn(Cc3ccccc3Cl)c2n1`, the inhibition in data set [4] was found to be 95.6%. The inhibition at 1.25 h, 1 µM on MAO-A [5] and at MAO-B [6] was less than 10% each time. Besides, the IC50 with Raji turned out to be 1.4 µM; in the data set on OCI-AML-3, 1.79 µM; in the data set with K562 it was 1.3 µM; in the data set with THP-1 it was 0.45 µM; with U-937, 1.22 µM.

`CSCCc1nc(-c2cccc(N)c2)oc1C`: the IC50 in data set [7] stood at 16.1 µM.

Molecule `COc1cc2c(cc1OC)-c1cc3ccc4c(c3c[n+]1CC2)OCO4` displayed an IC50 in data set [8] of 0.14 µM. Moreover, the inhibition at 1 µM at MAO-A [9] and at MAO-B [10] was less than 30% each time.

`C=CC(=O)Nc1cc(Nc2nccc(-c3cn(C)c4ccccc34)n2)c(OC)cc1N(C)CCN(C)C` [OSIMERTINIB]: the IC50 in [11] was 3.98 µM.

As for `COc1c(O[C@H]2O[C@@H](C(=O)O)[C@H](O)[C@@H](O)[C@@H]2O)cc(O)c2c(=O)cc(-c3ccccc3)oc12`, the results for the IC50 (in data set [12]; with MDA-MB-231) were 2.98 µM and 19.4 µM, respectively.

`COc1c(O)cc2oc3cc(O)c(CC=C(C)C)c(O)c3c(=O)c2c1CC=C(C)C` [MANGOSTIN]: the IC50 came to 12.8 µM in the data set with MDA-MB-231 and 2.81 µM in data set [13].

On to `COC(=O)c1cc(CN2CCN(C(=N)N)CC2)cc(C(=O)N2CCN(C(=O)c3ccc(C(=N)N)cc3)CC2)c1`, for which the midpoint of inhibition in data set [14], the IC50, lay at 5.27 µM.

Consider `Cc1ccc(S(=O)(=O)Nc2cccc(C(=O)NCCc3ccc([N+](=O)[O-])cc3)c2)cc1`, for which the IC50 in data set [1] came to 90 µM; in data set [2], 226 µM.

With `COc1cc(CNC(=O)CCCC/C=C/C(C)C)ccc1O` [CAPSAICIN], the IC50 in data set [15] was 0.6 µM.

Turning to `COc1ccc(-c2coc3cc(O)cc(O)c3c2=O)cc1` [BIOCHANIN], in the data set on MGC-803, the IC50 worked out at 2.95 µM. Further, in data set [16], the IC50 at 72 h was more than 32 µM.

Regarding `N=C(N)c1ccc(C(=O)N2CCN(C(=O)c3cc(CN4CCN(C(=N)N)CC4)cc([N+](=O)[O-])c3)CC2)cc1`, inhibition in [14] was half-maximal at 10.5 µM (IC50).

For the molecule `CC(C)(C)OC(=O)N1CCN(C(=S)SCC(=O)Nc2ccc(C(=O)/C=C/c3ccccc3F)cc2)CC1`, the IC50 in [17] and in data set [18] was more than 20 µM each time.

With `Cc1ccc(S(=O)(=O)Nc2cccc(C(=O)NCCc3ccc(O)cc3)c2)cc1`, the values for the IC50 in data set [1] and in data set [2] were 109 µM and 344 µM, respectively.

These data come from ChEMBL document CHEMBL5226296, “Reversible Lysine Specific Demethylase 1 (LSD1) Inhibitors: A Promising Wrench to Impair LSD1” (J Med Chem, 2021).
